{"source": "patent US9572893B2", "about": "“Nanocomplex containing cationic peptide for biomolecule delivery” (Council of Scientific and Industrial Research, priority 2012, dated 2017)", "format_in_all_cases": "cell-based", "key": {"[1]": {"test_system": "CHO-K1 cells and HACAT cells", "assay": "Cell viability / cytotoxicity, cell line not stated (MTT and CellTitreGLO)", "conditions": "cell line not stated", "description": "(§1) FIG. 3: Cell viability measured via MTT assay and CellTitreGLO assay. CHO-K1 cells and HACAT cells were treated with arginines-histidine-cysteine based peptides comprising nanocomplexes (at charge ratio 10.0) and a Lipofectamine™/Cellfectin™/Superfect™-DNA complex for 4 hours and cell viability was assessed after 24 hours. Untreated cells are taken as control and their absorbance (in the presence of MTT reagent and cell titre GLO reagent) is set as 100% and relative decrease in absorbance is taken as measure of cell viability.\nCHO-K1 cells were seeded at density of 7000 cells per well in 96 well plate format in Hams F12K media containing 10% FBS at 37° C. and 5% CO2 in humidified incubator. […] Finally the absorbance was recorded at 550 nm and 670 nm (to negate debris) along with the blank using ELISA plate reader. The percentage viability was calculated by Treated wells (OD550−OD670)/Untreated well (OD550−OD670)*100. […]\nThe experiment was performed in 96 well plate format wherein the Hacat cells were seeded at 50000 cells per well in DMEM-F12 media containing 10% FBS at 37° C. and 5% CO2 in humidified incubator. […] The plate was then kept in dark for 10 mins at RT for stabilization of the luminescence signal. The reading was recorded on Tecan system and plotted as % cell viability."}, "[2]": {"assay": "Cytotoxicity of nanocomplex using MTT assay", "conditions": "CHO-K1 cells, charge ratio 10.0, treated 4 hours; read-out: cell viability", "description": "as §1\n(§2) CHO-K1 cells were seeded at density of 7000 cells per well in 96 well plate format in Hams F12K media containing 10% FBS at 37° C. and 5% CO2 in humidified incubator. After 24 hours cells were washed with serum free media and treated with different nanocomplex at Z=10.0 (in quadruplets) for 4 hours, keeping DNA concentration 200 ng/well. The viability was assayed after 4 hrs and 24 hrs (in the latter case nanocomplex containing media was replaced with complete media after 4 hrs) of transfection. Briefly 100 ul of MTT reagent (0.5 mg/ml) was added to each well and incubated at 37° C. for 2 hrs to allow formation of formazan crystals. […] Following incubation 100 ul MTT detergent buffer (0.5 ml 10% SDS and 0.06 ml 12N HCl in 10 ml isopropanol) was added to each well and crystals were dissolved by gentle shaking for 30 mins. Finally the absorbance was recorded at 550 nm and 670 nm (to negate debris) along with the blank using ELISA plate reader. The percentage viability was calculated by Treated wells (OD550−OD670)/Untreated well (OD550−OD670)*100. The average of two independent experiments is plotted where each treatment is performed in quadruplets."}, "CHO-K1 cells": {"test_system": "CHO-K1 cells", "assay": "Cytotoxicity of nanocomplex using MTT assay", "description": "as §1, §2"}, "[3]": {"assay": "Cytotoxicity estimation using Celltitre GLO method", "conditions": "human; Hacat cells, charge ratio 10.0, treated 4 hours; read-out: cell viability", "description": "as §1\n(§3) The experiment was performed in 96 well plate format wherein the Hacat cells were seeded at 50000 cells per well in DMEM-F12 media containing 10% FBS at 37° C. and 5% CO2 in humidified incubator. After 24 hours cells were washed with serum free media and treated with nanocomplex at Z=10.0 (in quadruplets) for 4 hours, keeping DNA concentration 200 ng/well. The viability was assayed after 4 hrs and 24 hrs (in the latter case nanocomplex containing media was replaced with complete media after 4 hrs) of transfection. Initially the plate was equilibrated for 30 mins at RT followed by addition of 100 ul of cell titre GLO reagent with continuous shaking on rotor for 2 mins to allow cell lysis. The plate was then kept in dark for 10 mins at RT for stabilization of the luminescence signal. The reading was recorded on Tecan system and plotted as % cell viability."}, "Hacat cells": {"test_system": "Hacat cells", "assay": "Cytotoxicity estimation using Celltitre GLO method", "description": "as §1, §3"}}, "note": "Where a SMILES comes first, the peptide text is derived from it."}
{"molecule": "N=C(N)NCCC[C@H](NC(=O)[C@H](CCCNC(=N)N)NC(=O)[C@H](CCCNC(=N)N)NC(=O)[C@H](CCCNC(=N)N)NC(=O)[C@H](Cc1c[nH]cn1)NC(=O)[C@H](Cc1c[nH]cn1)NC(=O)[C@H](Cc1c[nH]cn1)NC(=O)[C@H](Cc1c[nH]cn1)NC(=O)[C@H](CCCNC(=N)N)NC(=O)[C@H](CCCNC(=N)N)NC(=O)[C@H](CCCNC(=N)N)NC(=O)[C@H](CCCNC(=N)N)NC(=O)[C@H](CCCNC(=N)N)NC(=O)[C@@H](N)CS)C(=O)N[C@@H](Cc1c[nH]cn1)C(=O)N[C@@H](Cc1c[nH]cn1)C(=O)N[C@@H](Cc1c[nH]cn1)C(=O)N[C@@H](CS)C(=O)O", "note": "[CR5H4R4H3C, CRRRRRHHHHRRRRHHHC] (H-CRRRRRHHHHRRRRHHHC-OH)", "values": [{"measurement": "cytotoxicity", "setting": "[1]", "value": "minimal"}, {"measurement": "viability at 4 h", "setting": "[2]", "value": "80 to 90", "unit": "%"}, {"measurement": "cell viability compared to Cellfectin and Superfect transfection agents", "setting": "CHO-K1 cells", "value": "comparable"}, {"measurement": "viability at 4 h", "setting": "[3]", "value": "80 to 90", "unit": "%"}, {"measurement": "cell viability compared to Cellfectin", "setting": "Hacat cells", "value": "comparable"}]}
{"molecule": "N=C(N)NCCC[C@H](NC(=O)[C@H](Cc1c[nH]cn1)NC(=O)[C@H](CCCNC(=N)N)NC(=O)[C@H](Cc1c[nH]cn1)NC(=O)[C@H](CCCNC(=N)N)NC(=O)[C@H](Cc1c[nH]cn1)NC(=O)[C@H](CCCNC(=N)N)NC(=O)[C@H](Cc1c[nH]cn1)NC(=O)[C@H](CCCNC(=N)N)NC(=O)[C@H](Cc1c[nH]cn1)NC(=O)[C@H](CCCNC(=N)N)NC(=O)[C@H](Cc1c[nH]cn1)NC(=O)[C@H](CCCNC(=N)N)NC(=O)[C@H](Cc1c[nH]cn1)NC(=O)[C@H](CCCNC(=N)N)NC(=O)[C@H](CCCNC(=N)N)NC(=O)[C@@H](N)CS)C(=O)N[C@@H](CS)C(=O)O", "note": "[CR(RH)7RC, CRRHRHRHRHRHRHRHRC] (H-CRRHRHRHRHRHRHRHRC-OH)", "values": [{"measurement": "cytotoxicity", "setting": "[1]", "value": "minimal"}, {"measurement": "viability at 4 h", "setting": "[2]", "value": "70 to 80", "unit": "%"}, {"measurement": "cell viability compared to Cellfectin and Superfect transfection agents", "setting": "CHO-K1 cells", "value": "comparable"}, {"measurement": "viability at 4 h", "setting": "[3]", "value": "80 to 90", "unit": "%"}, {"measurement": "cell viability compared to Cellfectin", "setting": "Hacat cells", "value": "comparable"}]}
